No end group written: not given here.
What was measured:
[1] = test system: ECAD in 501mel cells with and without GRPR; assay: Western blot of ECAD with and without GRP; format: cell-based, human; details: 501mel cells expressing GRPR, 10 nM GRP
Protocol: Whole-cell lysates were prepared and analysed as described previously. The primary antibodies used were: E-cadherin (610182, BD Transduction Laboratories, dilution 1/1,000); ERα (MA1-27107, Invitrogen, dilution 1/500); YAP (14074, Cell Signaling, dilution 1/1,000); β-actin (A5441, Sigma, dilution 1/5,000); and vinculin (4650, Cell Signaling, dilution 1/5,000). All raw data are provided in Supplementary Fig. 1.

GRPR, Gαq/11 activation = assay: IP1 detection (HTRF IP-one Gq kit); format: cell-based, mouse; details: 10 nM GRP, 30 min, 37 °C
Protocol: IP1 levels were quantified using the HTRF IP-one Gq detection kit (62IPAPEB, Revvity) following the manufacturer’s protocol. We treated 4,000 cells for 30 min at 37 °C in StimB buffer with 10 nM GRP, 1 µM RC-3095, 1 µM ICI-182,780 or DMSO. FRET signals (620 nm and 665 nm, excitation at 385 nm) were measured using a Clariostar plate reader (BMG Labtech).

[2] = test system: Yap1 in Grpr+ mouse melanoma cells (1057); assay: YAP1 nuclear localization (immunofluorescence); format: cell-based; details: 1057 cells, 1 h, 10 nM GRP and/or 1 µM RC
Protocol: Cells were seeded on coverslips and cultivated until 100% confluence was achieved. After 24 h of starvation in 0.5% FCS for murine melanoma cell lines and 1% FCS for human melanoma, the medium was complemented with 10 nM GRP and/or 1 µM RC for 1 h. Cells were fixed with 4% PFA for 15 min and blocked with 5% normal goat serum and 0.3% Triton X-100 in PBS. Cells were incubated overnight at 4 °C with anti-YAP D8H1X antibody (14074, cell Signaling, 1/100 dilution) in 1% BSA and 0.3% Triton X-100 followed by incubation for 1.5 h at room temperature with goat anti-rabbit Alexa fluor 594 (A-11012, Invitrogen, 1/500 dilution). Coverslips were mounted with Prolong Gold containing 1.5 µg ml^−1 DAPI (P36934, Invitrogen). Images were acquired using an inverted SP8 Leica confocal microscope (Leica Microsystem). YAP1 localization was evaluated using ImageJ Software.

[3] = test system: serine/threonine kinases in 1057 cells; assay: Kinase assay (PamGene STK PamChip); format: cell-based, mouse; details: 10 nM GRP, 15 min
Protocol: Serine/threonine and tyrosine kinase activity were determined using STK PamChips (87102 PamGene International). All assays were done according to the manufacturer’s protocol. In brief, cells were seeded to 70% confluence and starved overnight the day after. Then, the medium was replaced by medium containing vehicle (0.1% DMSO) or 10 nM GRP and/or 1 µM RC and the cells incubated for 15 min. Cells were rinsed twice in PBS and then lysed in M-Per buffer (78503, ThermoFisher Scientific) containing Halt Phosphatase Inhibitor (78428, ThermoFisher Scientific) and Halt Protease Inhibitor (78437, ThermoFisher Scientific), both diluted 1:100. The lysates were immediately snap-frozen. Kinase activity was determined using Pamstation PS12 and 1 µg protein for the STK chips, according to the manufacturer’s protocol. The data were analysed using BioNavigator software (PamGene International), batch corrected using ComBat[71] and normalized using VSN[72]. Kinase activity was assessed using the 2018 version of the UKA tool using basic parameters (Scan rank from 4 to 12, 500 permutations, 90% homology, equivalent weight for each database, minimal prediction score of 300). The UKA tool infers the active kinase from the differentially phosphorylated peptides using databases and predicted interactions (PhosphoNet database).

[4] = test system: mouse melanoma cells (1057, 1014, 1062); assay: Anoikis assay, mouse melanoma cells; format: cell-based; details: 48 h
Protocol: Six-well plates were coated with poly-HEMA to prevent cell attachment to the well surface. Cells were seeded in low-serum medium containing 10 nM GRP and/or 1 µM RC. Then, 48 hours after cell seeding, cells were collected and washed with ice-cold PBS twice and resuspended in annexin V binding buffer (556454, BD Biosciences) and incubated at room temperature in the dark with 7-amino-actinomycin D (7-AAD, 559925, BD Biosciences) and annexin-V for 15 min. Annexin V was coupled to FITC (556420, BD Biosciences) for the 1057 and MDA-MB-435S cell lines and to PE (556421, BD Biosciences) for the other cell lines. Cells were sorted using a FACS LSRFortessa (BD Biosciences) to determine the percentage of annexin V- and/or 7-AAD-positive cells using a 488 nm laser for annexin V-FITC and annexin V-PE and a 675 nm laser for7-AAD. All quantification was performed using Flow-Jo.

[5] = test system: human melanoma cell lines (MDA-MB-435S, Dauv-1, 501mel-GRPR); assay: Matrigel invasion assay, human melanoma cells; format: cell-based; details: 10 nM GRP and/or 1 µM RC-3095, 24 h, 1% FCS
Protocol: Matrigel invasion assays were done in transwell plates with 8.0-µm pores (353097, Falcon) coated with 100 µl of 200 µg ml^−1 Matrigel. Depending on the experiments, cells were seeded directly or 24 h after transfection in low-serum medium (0.5% FCS for murine cells and 1% for human cell lines) with 10 nM GRP, 1 µM RC-3095, and/or 1 µM IC 182,780, or in 10% FCS. Then, 24 hours after stimulation, inserts were washed with PBS and non-invading cells were removed. Cells in the inserts were fixed in methanol at −20 °C overnight. The inserts were rinsed and the membrane carefully removed using a sharp scalpel. The membrane was mounted in prolong glass DAPI (1.5 µg ml^−1). Assays were performed in triplicate and automatic counting of invading cells was done using an Image/Fiji macro (10.5281/zenodo.14509394). Sequences of siRNAs are given in Supplementary Table 11.

## GRP: GRPR's natural agonist, endogenous ligand of GRPR (4011670 bachem) (VPLPAGGGTVLTKMYPRGNHWAVGHLM; not fully specified; ends and bridges not checked; UniProt P07492 24-50, looked up)
[1]
  ECAD protein level: lower
GRPR, Gαq/11 activation
  IP1 production, GRPR-negative cells: not GRPR-negative cells
GRPR, Gαq/11 activation; 4,000 cells, StimB buffer, 1 µM RC-3095, 1 µM ICI-182,780 (pre-treatment)
  IP1 production, GRPR-positive cells: triggered IP1 production
[2]
  YAP1 nuclear localization: increased
[3]
  kinases activated following GRPR activation: primarily triggered protein kinase C (PKC) and, to a lesser extent, PKAα and PRKX
[4]; 1057, 10 nM GRP and/or 1 µM RC, poly-HEMA, low serum, annexin V/7-AAD
  anoikis resistance (apoptotic cells without matrix attachment), GRPR+ mouse cells: promoted
[4]; male ∆Ecad (1062) and female Ecad (1014) cells, 10 nM GRP
  anoikis resistance, Grpr-negative mouse cells: did not promote anoikis resistance
[5]
  invasion (number of invading cells), GRPR-positive human lines: promoted

Reference: paper PMC12267067, “Targeting GRPR for sex hormone-dependent cancer after loss of E-cadherin” (Nature, 2025)
